Results: ChEMBL document CHEMBL5500363, “Discovery of novel ocotillol derivatives modulating glucocorticoid receptor/NF-κB signaling for the treatment of sepsis” (Eur J Med Chem, 2024)

What was measured:
[1] = Cytotoxicity against mouse RAW264.7 cells assessed as cell viability at 40 uM incubated for 24 hrs by MTT assay relative to control; format: toxicity, cell-based; details: read-out: Activity
[2] = test system: RAW264.7; experiment: Inhibition of LPS-induced NO production in mouse RAW264.7 cells at 5 uM pretreated for 2 hrs followed by LPS stimulation for 24 hrs by Griess assay relative to control; format: functional; details: time 26 hrs
[3] = test system: RAW264.7; experiment: Inhibition of LPS-induced NO production in mouse RAW264.7 cells at 10 uM pretreated for 2 hrs followed by LPS stimulation for 24 hrs by Griess assay relative to control; format: functional; details: time 26 hrs
[4] = test system: RAW264.7; experiment: Inhibition of LPS-induced NO production in mouse RAW264.7 cells at 20 uM pretreated for 2 hrs followed by LPS stimulation for 24 hrs by Griess assay relative to control; format: functional; details: time 26 hrs
[5] = test system: RAW264.7; experiment: Inhibition of LPS-induced NO production in mouse RAW264.7 cells pretreated for 2 hrs followed by LPS stimulation for 24 hrs by Griess assay; format: functional, cell-based
[6] = test system: RAW264.7; experiment: Cytotoxicity against mouse RAW264.7 cells assessed as cell viability at 40 uM incubated for 24 hrs by MTT assay; format: toxicity, cell-based; details: raw264.7, 24 h

Structure (SMILES) | viability at 24 h, 40 µM [1] [%] | inhibition at 5 µM [2] [%] | inhibition at 10 µM [3] [%] | inhibition at 20 µM [4] [%] | IC50 [5] [µM] | Activity [6]
CC(C)(O)[C@@H]1CC[C@@](C)(C2CC[C@]3(C)[C@@H]2[C@H](O)C[C@@H]2[C@@]4(C)Cc5sc(NC(=O)OC(F)(F)F)nc5C(C)(C)[C@@H]4CC[C@]23C)O1 (some centres undefined) | > 90 | 6.07 | 6.84 | 22.2 | 41.6 | 
CC(C)(C)OC(=O)CCCC(=O)Nc1nc2c(s1)C[C@]1(C)[C@H]3C[C@@H](O)[C@@H]4C([C@]5(C)CC[C@@H](C(C)(C)O)O5)CC[C@@]4(C)[C@]3(C)CC[C@H]1C2(C)C (some centres undefined) | > 90 | 20.4 | 41.2 | 60.4 | 11.6 | 
CC(C)(C)OC(=O)CCC(=O)Nc1nc2c(s1)C[C@]1(C)[C@H]3C[C@@H](O)[C@@H]4C([C@]5(C)CC[C@H](C(C)(C)O)O5)CC[C@@]4(C)[C@]3(C)CC[C@H]1C2(C)C (some centres undefined) | > 90 | 11.1 | 22.5 | 39.1 | 16.5 | 
CC(C)(O)[C@H]1CC[C@@](C)(C2CC[C@]3(C)[C@@H]2[C@H](O)C[C@@H]2[C@@]4(C)CC[C@H](O)C(C)(C)[C@@H]4CC[C@]23C)O1 (some centres undefined) |  | 13 | 19.7 | 30.3 | 20.8 | 
CC(=O)Nc1nc2c(s1)C[C@]1(C)[C@H]3C[C@@H](O)[C@@H]4C([C@]5(C)CC[C@@H](C(C)(C)O)O5)CC[C@@]4(C)[C@]3(C)CC[C@H]1C2(C)C (some centres undefined) |  |  |  |  |  | Toxic
CC(C)(O)[C@@H]1CC[C@@](C)(C2CC[C@]3(C)[C@@H]2[C@H](O)C[C@@H]2[C@@]4(C)Cc5sc(N)nc5C(C)(C)[C@@H]4CC[C@]23C)O1 (some centres undefined) | > 90 | 11.4 | 23.5 | 36.6 | 26.1 | 
CC(C)(C)OC(=O)NCCCCCCCC(=O)Nc1nc2c(s1)C[C@]1(C)[C@H]3C[C@@H](O)[C@@H]4C([C@]5(C)CC[C@H](C(C)(C)O)O5)CC[C@@]4(C)[C@]3(C)CC[C@H]1C2(C)C (some centres undefined) |  |  |  |  |  | Toxic
CC(C)(O)[C@@H]1CC[C@@](C)(C2CC[C@]3(C)[C@@H]2[C@H](O)C[C@@H]2[C@@]4(C)CC[C@H](OC(=O)CCC(=O)Nc5nnc(Cl)s5)C(C)(C)[C@@H]4CC[C@]23C)O1 (some centres undefined) | > 90 | 32.5 | 43.4 | 45.7 | 29.8 | 
CC(C)(C)OC(=O)NCCCCCCCCCCC(=O)Nc1nc2c(s1)C[C@]1(C)[C@H]3C[C@@H](O)[C@@H]4C([C@]5(C)CC[C@H](C(C)(C)O)O5)CC[C@@]4(C)[C@]3(C)CC[C@H]1C2(C)C (some centres undefined) |  |  |  |  |  | Toxic
Cc1nnc(NC(=O)CCC(=O)O[C@H]2CC[C@]3(C)[C@H]4C[C@@H](O)[C@@H]5C([C@]6(C)CC[C@H](C(C)(C)O)O6)CC[C@@]5(C)[C@]4(C)CC[C@H]3C2(C)C)s1 (some centres undefined) |  |  |  |  |  | Toxic
CC(C)(C)OC(=O)NCCCC(=O)Nc1nc2c(s1)C[C@]1(C)[C@H]3C[C@@H](O)[C@@H]4C([C@]5(C)CC[C@@H](C(C)(C)O)O5)CC[C@@]4(C)[C@]3(C)CC[C@H]1C2(C)C (some centres undefined) |  |  |  |  |  | Toxic
CC(C)(O)[C@H]1CC[C@@](C)(C2CC[C@]3(C)[C@@H]2[C@H](O)C[C@@H]2[C@@]4(C)Cc5sc(NC(=O)C(F)(F)F)nc5C(C)(C)[C@@H]4CC[C@]23C)O1 (some centres undefined) |  |  |  |  |  | Toxic
CC(C)(O)[C@@H]1CC[C@@](C)(C2CC[C@]3(C)[C@@H]2[C@H](O)C[C@@H]2[C@@]4(C)CC[C@H](O)C(C)(C)[C@@H]4CC[C@]23C)O1 (some centres undefined) |  | 5.58 | 8.85 | 22.3 | 30.4 | 
CC(C)(O)[C@H]1CC[C@@](C)(C2CC[C@]3(C)[C@@H]2[C@H](O)C[C@@H]2[C@@]4(C)CC[C@H](OC(=O)CCC(=O)Nc5nnc(Cl)s5)C(C)(C)[C@@H]4CC[C@]23C)O1 (some centres undefined) | > 90 | 28.6 | 47.3 | 57.9 | 11.4 | 
CC(C)(O)[C@H]1CC[C@@](C)(C2CC[C@]3(C)[C@@H]2[C@H](O)C[C@@H]2[C@@]4(C)CC[C@H](OC(=O)CCC(=O)Nc5nncs5)C(C)(C)[C@@H]4CC[C@]23C)O1 (some centres undefined) | > 90 | 10.8 | 18.5 | 35.7 | 40.3 | 
CC(C)(O)[C@@H]1CC[C@@](C)(C2CC[C@]3(C)[C@@H]2[C@H](O)C[C@@H]2[C@@]4(C)CC[C@H](OC(=O)CCC(=O)Nc5nnc(Br)s5)C(C)(C)[C@@H]4CC[C@]23C)O1 (some centres undefined) | > 90 | 34.8 | 47 | 70.2 | 10.3 | 
CC(C)(C)OC(=O)NCCCCCC(=O)Nc1nc2c(s1)C[C@]1(C)[C@H]3C[C@@H](O)[C@@H]4C([C@]5(C)CC[C@@H](C(C)(C)O)O5)CC[C@@]4(C)[C@]3(C)CC[C@H]1C2(C)C (some centres undefined) | > 90 | 27.4 | 43.6 | 48.5 | 24.5 | 
CC(C)(C)OC(=O)NCCCCCCCCCCC(=O)Nc1nc2c(s1)C[C@]1(C)[C@H]3C[C@@H](O)[C@@H]4C([C@]5(C)CC[C@@H](C(C)(C)O)O5)CC[C@@]4(C)[C@]3(C)CC[C@H]1C2(C)C (some centres undefined) | > 90 | 1.99 | 6.18 | 17.1 | 50.6 | 
CC(C)(O)[C@@H]1CC[C@@](C)(C2CC[C@]3(C)[C@@H]2[C@H](O)C[C@@H]2[C@@]4(C)Cc5sc(NC(=O)C(F)(F)F)nc5C(C)(C)[C@@H]4CC[C@]23C)O1 (some centres undefined) | > 90 | 14.2 | 20.6 | 30.9 | 25.7 | 
CC(C)(C)OC(=O)NCCCCCCCC(=O)Nc1nc2c(s1)C[C@]1(C)[C@H]3C[C@@H](O)[C@@H]4C([C@]5(C)CC[C@@H](C(C)(C)O)O5)CC[C@@]4(C)[C@]3(C)CC[C@H]1C2(C)C (some centres undefined) | > 90 | 19.9 | 29.9 | 39.4 | 33.1 | 
CC(C)(O)[C@H]1CC[C@@](C)(C2CC[C@]3(C)[C@@H]2[C@H](O)C[C@@H]2[C@@]4(C)Cc5sc(NC(=O)OC(F)(F)F)nc5C(C)(C)[C@@H]4CC[C@]23C)O1 (some centres undefined) | > 90 | 8.01 | 21.2 | 37.5 | 35.6 | 
CC(C)(O)[C@H]1CC[C@@](C)(C2CC[C@]3(C)[C@@H]2[C@H](O)C[C@@H]2[C@@]4(C)Cc5sc(N)nc5C(C)(C)[C@@H]4CC[C@]23C)O1 (some centres undefined) | > 90 | 19 | 23.9 | 37.7 | 18.9 | 
CC(C)(C)OC(=O)CC(=O)Nc1nc2c(s1)C[C@]1(C)[C@H]3C[C@@H](O)[C@@H]4C([C@]5(C)CC[C@@H](C(C)(C)O)O5)CC[C@@]4(C)[C@]3(C)CC[C@H]1C2(C)C (some centres undefined) | > 90 | 24.5 | 40.7 | 67.2 | 9.17 | 
CC(C)(C)OC(=O)CC(=O)Nc1nc2c(s1)C[C@]1(C)[C@H]3C[C@@H](O)[C@@H]4C([C@]5(C)CC[C@H](C(C)(C)O)O5)CC[C@@]4(C)[C@]3(C)CC[C@H]1C2(C)C (some centres undefined) | > 90 | 14.3 | 29.8 | 50 | 17.5 | 
CC(C)(C)OC(=O)CCCC(=O)Nc1nc2c(s1)C[C@]1(C)[C@H]3C[C@@H](O)[C@@H]4C([C@]5(C)CC[C@H](C(C)(C)O)O5)CC[C@@]4(C)[C@]3(C)CC[C@H]1C2(C)C (some centres undefined) | > 90 | 14.2 | 13.3 | 18.1 | 52 | 
CC(C)(O)[C@@H]1CC[C@@](C)(C2CC[C@]3(C)[C@@H]2[C@H](O)C[C@@H]2[C@@]4(C)CC[C@H](OC(=O)CCC(=O)Nc5nncs5)C(C)(C)[C@@H]4CC[C@]23C)O1 (some centres undefined) | > 90 | 7.78 | 21.3 | 58.6 | 17.9 | 
